Experimental data from patent US8436005B2, “Macrocyclic pyrimidine derivatives” (Abbott Laboratories, priority 2008, dated 2013).

System: carrageenan-induced thermal hyperalgesia
Experiment: Acute model of carrageenan-induced thermal hyperalgesia (hotbox assay)
Format: in vivo
Conditions: 100 micromole/kg intraperitoneally, 90 minutes after carrageenan, tested 30 minutes after dosing
Description: To assess the effectiveness of representative compounds of the invention against acute model inflammatory pain, animals can be tested in an acute model of carrageenan-induced thermal hyperalgesia (see for example, Honore, et al. Behavioural Brain Research (2006) vol. 167 pp. 355-364; Porreca, et al. Journal of Pharmacology and Experimental Therapeutics (2006) vol. 318 pp. 195-205). Carrageenan is injected into the test paw of the animal, and after 90 minutes, the test drug is administered by intraperitoneal dosing; the effect on thermal hyperalgesia is assessed in a hotbox assay which is done 30 minutes after the intraperitoneal dosing of the test drug. The MPE (maximal percent effect) is reported by comparison to the control paw (not injected with carrageenan), MPE being expressed as 100 times the withdrawal latency of the carrageenan injected paw (in seconds) divided by the withdrawal latency of the control (not injected with carrageenan) paw.

SMILES | MPE (maximal percent effect), withdrawal latency of carrageenan injected paw vs control paw [%]
Nc1nc2c(c(N3CCNCC3)n1)CCCCC2c1ccccc1 (centres unmarked) [Example 19, 9-phenyl-4-(piperazin-1-yl)-6,7,8,9-tetrahydro-5H-cyclohepta[d]pyrimidin-2-amine] | 26
Nc1nc2c(c(N3C[C@H]4CCCN[C@H]4C3)n1)CCCCC2c1ccccc1 (stereo partly drawn) [Example 21, 9-phenyl-4-((4aR,7aR)-tetrahydro-1H-pyrrolo[3,4-b]pyridin-6(2H,7H,7aH)-yl)-6,7,8,9-tetrahydro-5H-cyclohepta[d]pyrimidin-2-amine] | 24
